ChEMBL document CHEMBL5661943, “ASAP - In vitro antiviral effect” (2024)

Columns and labels:
Zika virus = test: Functional CPE-based assay to measure dose dependent changes in antiviral-drug inhibitory efficacy against Zika virus MR766 in Vero E6 miRFP670 cells (cotreated with P-gp inhibitor, CP100356). Cells are treated with antiviral candidates that are serially diluted. EC50 is reported via analysis of MTS assay as a readout of CPE. The assay has been performed by KU Leuven.; format: organism-based, Chlorocebus sabaeus, Vero C1008; settings: Zika virus
dengue virus type 2 = test: Functional assay to measure dose dependent changes in antiviral-drug inhibitory efficacy against Dengue virus type 2 New Guinea C in Vero E6 miRFP670 cells (cotreated with P-gp inhibitor, CP100356). Cells are treated with antiviral candidates that are serially diluted, following infection, cells are fixed. EC50 is reported via analysis of fluorescence intensity using high-content imager. The …; format: organism-based, Chlorocebus sabaeus, Vero C1008; settings: Dengue virus; for EC90: P-gp concentration 500 nM, P-gp inhibitor CP100356

Row | SMILES | EC50 (Zika virus; Vero C1008) [µM] | EC50 (dengue virus type 2; Vero C1008) [µM] | other results
1 | Cc1ncc(-c2cc(F)cc(C(=O)Nc3ccc4c(c3)CNC4)c2)o1 | > 6.25 | 16.5 | EC90 (Zika virus; Vero C1008, Baseline response 0 %, Hill slope 1.881, Maximum measured 43.228 %, Maximum response 100 %, Minimum measured 5.06 %, P-gp concentration 500 nM, R squared 0.9, P-gp inhibitor CP100356): > 6.25 µM; EC90 (dengue virus type 2; Vero C1008, Baseline response 0 %, Hill slope -0.224, Maximum measured 78.762 %, Maximum response 100 %, Minimum measured 32.755 %, R squared 0.24): > 50 µM
2 | O=C(Nc1cc2c(cc1Br)CNC2)c1cc(Cl)cc2[nH]ncc12 | 1.53 | > 12.5 | EC90 (Zika virus; Vero C1008, Baseline response 0 %, EC90 CI (lower) 0.641 uM, EC90 CI (upper) 7.527 uM, Hill slope 6.115, Maximum measured 127.201 %, Maximum response 100 %, Minimum measured 6.803 %, P-gp concentration 500 nM, R squared 0.89, P-gp inhibitor CP100356): 2.2 µM; EC90 (dengue virus type 2; Vero C1008, Baseline response 0 %, Hill slope -0.294, Maximum measured 95.105 %, Maximum response 100 %, Minimum measured 44.86 %, R squared 0.086): > 12.5 µM
3 | O=C(Nc1ccc2c(c1)CN[C@H]2C[C@H](O)CO)c1cc(F)cc2[nH]ncc12 | > 50 | > 50 | EC90 (Zika virus; Vero C1008, Maximum measured 5.346 %, Minimum measured 2.665 %, P-gp concentration 500 nM, P-gp inhibitor CP100356): > 50 µM; EC90 (dengue virus type 2; Vero C1008, Baseline response 0 %, Hill slope 0.494, Maximum measured 181.349 %, Maximum response 100 %, Minimum measured 67.92 %, R squared 0.043): > 50 µM
4 | O=C(NCC(F)F)[C@H](Nc1ccc2c(c1)CNC2)c1cc(F)cc2[nH]ccc12 | > 50 | > 50 | EC90 (Zika virus; Vero C1008, Baseline response 0 %, Hill slope 0.152, Maximum measured 3.288 %, Maximum response 100 %, Minimum measured 0.363 %, P-gp concentration 500 nM, R squared 0.104, P-gp inhibitor CP100356): > 50 µM; EC90 (dengue virus type 2; Vero C1008, Maximum measured 207.16 %, Minimum measured 119.939 %): > 50 µM
5 | CCCn1cc2c(C(=O)Nc3ccc4c(c3)CNC4)cc(Cl)cc2n1 | 3.04 | > 3.12 | EC90 (Zika virus; Vero C1008): 3.55 µM; EC90 (dengue virus type 2; Vero C1008, Baseline response 0 %, Hill slope 1.203, Maximum measured 92.059 %, Maximum response 100 %, Minimum measured 55.102 %, R squared 0.785): > 3.12 µM
6 | O=C(NCCC1CC1)[C@H](Nc1ccc2c(c1)CNC2)c1cc(Cl)cc(C2CC2)c1 | 5.72 | > 12.5 | EC90 (Zika virus; Vero C1008, Baseline response 0 %, Hill slope 7.335, Maximum measured 65.758 %, Maximum response 100 %, Minimum measured 0.052 %, P-gp concentration 500 nM, R squared 0.996, P-gp inhibitor CP100356): > 6.25 µM; EC90 (dengue virus type 2; Vero C1008, Baseline response 0 %, Hill slope -1.051, Maximum measured 118.853 %, Maximum response 100 %, Minimum measured 76.41 %, R squared 0.201): > 12.5 µM
7 | O=C(Nc1ccc2c(c1)CNC2)c1cc(F)cc(-c2cccnc2)c1 | 6.3 | 0.651 | EC90 (Zika virus; Vero C1008, Baseline response 0 %, Hill slope 23.488, Maximum measured 123.724 %, Maximum response 100 %, Minimum measured 1.449 %, P-gp concentration 500 nM, R squared 0.923, P-gp inhibitor CP100356): 6.91 µM; EC90 (dengue virus type 2; Vero C1008, Baseline response 0 %, Hill slope -0.704, Maximum measured 60.172 %, Maximum response 100 %, Minimum measured 15.025 %, R squared 0.92): > 12.5 µM
8 | O=C(Nc1ccc2c(c1)CNC2)c1cccc2c1[C@]1(CCNC1)C(=O)N2 | > 50 | > 12.5 | EC90 (Zika virus; Vero C1008, Baseline response 0 %, Hill slope 1.1, Maximum measured 3.95 %, Maximum response 100 %, Minimum measured -2.689 %, P-gp concentration 500 nM, R squared 0.205, P-gp inhibitor CP100356): > 50 µM; EC90 (dengue virus type 2; Vero C1008, Maximum measured 172.695 %, Minimum measured 97.519 %): > 12.5 µM
9 | Cc1ncc(-c2cc(F)cc(C(=O)Nc3ccc4c(c3)CNC4)c2)s1 | 3.77 | > 25 | EC90 (Zika virus; Vero C1008, Baseline response 0 %, EC90 CI (lower) 3.392 uM, EC90 CI (upper) 11.052 uM, Hill slope 4.52, Maximum measured 126.226 %, Maximum response 100 %, Minimum measured 6.868 %, P-gp concentration 500 nM, R squared 0.912, P-gp inhibitor CP100356): 6.12 µM; EC90 (dengue virus type 2; Vero C1008, Maximum measured 125.186 %, Minimum measured 53.808 %): > 25 µM
10 | O=C(Nc1cc(Br)c2c(c1)CNC2)c1cc(F)cc2[nH]ncc12 | 1.56 | > 50 | EC90 (Zika virus; Vero C1008, Baseline response 0 %, Hill slope 40.279, Maximum measured 114.894 %, Maximum response 100 %, Minimum measured 2.051 %, P-gp concentration 500 nM, R squared 0.957, P-gp inhibitor CP100356): 1.65 µM; EC90 (dengue virus type 2; Vero C1008, Baseline response 0 %, Hill slope -0.743, Maximum measured 120.32 %, Maximum response 100 %, Minimum measured 52.999 %, R squared 0.166): > 50 µM
11 | O=C(NCC(F)F)[C@H](Nc1ccc2c(c1)CNC2)c1cc(F)cc2[nH]ncc12 | 17.9 | > 50 | EC90 (Zika virus; Vero C1008, Baseline response 0 %, Hill slope 1.433, Maximum measured 86.437 %, Maximum response 100 %, Minimum measured 5.781 %, P-gp concentration 500 nM, R squared 0.963, P-gp inhibitor CP100356): > 50 µM; EC90 (dengue virus type 2; Vero C1008, Maximum measured 213.694 %, Minimum measured 101.734 %): > 50 µM
12 | O=C(Nc1ccc2c(c1)CNC2)c1cc(F)cc(-c2c[nH]c(=O)c(F)c2)c1 | > 50 | > 25 | EC90 (Zika virus; Vero C1008, Maximum measured 1.475 %, Minimum measured -1.93 %, P-gp concentration 500 nM, P-gp inhibitor CP100356): > 50 µM; EC90 (dengue virus type 2; Vero C1008, Baseline response 0 %, Hill slope 1.228, Maximum measured 158.309 %, Maximum response 100 %, Minimum measured 64.759 %, R squared 0.303): > 25 µM
13 | O=C(Nc1cc2c(cc1C1CC1)CNC2)c1cc(F)cc2[nH]ncc12 | 7.12 | > 3.12 | EC90 (Zika virus; Vero C1008, Baseline response 0 %, EC90 CI (lower) 6.176 uM, EC90 CI (upper) 30.178 uM, Hill slope 3.376, Maximum measured 139.956 %, Maximum response 100 %, Minimum measured 0.398 %, P-gp concentration 500 nM, R squared 0.839, P-gp inhibitor CP100356): 13.7 µM; EC90 (dengue virus type 2; Vero C1008, Maximum measured 158.599 %, Minimum measured 73.357 %): > 3.12 µM
14 | O=C(Nc1ccc2c(c1)CNC2)c1cc(Cl)cc2[nH]c(-c3cc(C4CC4)[nH]n3)nc12 | > 0.781 | > 3.12 | EC90 (Zika virus; Vero C1008, Baseline response 0 %, Hill slope 2.134, Maximum measured 7.792 %, Maximum response 100 %, Minimum measured 1.889 %, P-gp concentration 500 nM, R squared 0.797, P-gp inhibitor CP100356): > 0.781 µM; EC90 (dengue virus type 2; Vero C1008, Maximum measured 213.616 %, Minimum measured 78.099 %): > 3.12 µM
15 | O=C(Nc1ccc2c(c1)CN[C@H]2CCO)c1cc(F)cc2[nH]ncc12 | > 50 | > 50 | EC90 (Zika virus; Vero C1008, Baseline response 0 %, Hill slope 1.133, Maximum measured 29.989 %, Maximum response 100 %, Minimum measured 0.147 %, P-gp concentration 500 nM, R squared 0.888, P-gp inhibitor CP100356): > 50 µM; EC90 (dengue virus type 2; Vero C1008, Baseline response 0 %, Hill slope 0.366, Maximum measured 128.215 %, Maximum response 100 %, Minimum measured 81.639 %, R squared 0.156): > 50 µM
16 | C=CC[C@H]1NCc2cc(NC(=O)c3cc(F)cc4c3CC(=O)N4)ccc21 | 8.05 | > 50 | EC90 (Zika virus; Vero C1008): 19.4 µM; EC90 (dengue virus type 2; Vero C1008, Baseline response 0 %, Hill slope 1.022, Maximum measured 178.628 %, Maximum response 100 %, Minimum measured 80.7 %, R squared 0.039): > 50 µM
17 | Cc1cnccc1-c1cc(NC(=O)c2cc(F)cc3[nH]ncc23)cc2c1CNC2 | > 50 | > 25 | EC90 (Zika virus; Vero C1008, Baseline response 0 %, Hill slope 2.277, Maximum measured 10.357 %, Maximum response 100 %, Minimum measured -2.491 %, P-gp concentration 500 nM, R squared 0.469, P-gp inhibitor CP100356): > 50 µM; EC90 (dengue virus type 2; Vero C1008, Maximum measured 259.167 %, Minimum measured 80.59 %): > 25 µM
18 | Cc1cc(-c2cc(F)cc(C(=O)Nc3ccc4c(c3)CNC4)c2)[nH]n1 | 19.3 | > 50 | EC90 (Zika virus; Vero C1008, Baseline response 0 %, Hill slope 1.404, Maximum measured 64.496 %, Maximum response 100 %, Minimum measured 4.475 %, P-gp concentration 500 nM, R squared 0.907, P-gp inhibitor CP100356): > 25 µM; EC90 (dengue virus type 2; Vero C1008, Baseline response 0 %, Hill slope 1.641, Maximum measured 129.562 %, Maximum response 100 %, Minimum measured 66.397 %, R squared 0.205): > 50 µM
19 | N#Cc1cccc(-c2nc3c(C(=O)Nc4ccc5c(c4)CNC5)cc(Cl)cc3[nH]2)c1 | > 3.12 | > 50 | EC90 (Zika virus; Vero C1008, Baseline response 0 %, Hill slope 0.859, Maximum measured 7.667 %, Maximum response 100 %, Minimum measured 0.919 %, P-gp concentration 500 nM, R squared 0.501, P-gp inhibitor CP100356): > 3.12 µM; EC90 (dengue virus type 2; Vero C1008, Maximum measured 129.968 %, Minimum measured 100.984 %): > 50 µM
20 | O=C(Nc1cc2c(c(-c3ccnnc3)c1)CNC2)c1cc(Cl)cc2[nH]ncc12 | > 50 | > 6.25 | EC90 (Zika virus; Vero C1008, Baseline response 0 %, Hill slope 0.648, Maximum measured 22.176 %, Maximum response 100 %, Minimum measured 1.861 %, P-gp concentration 500 nM, R squared 0.877, P-gp inhibitor CP100356): > 50 µM; EC90 (dengue virus type 2; Vero C1008, Baseline response 0 %, Hill slope 3.411, Maximum measured 174.98 %, Maximum response 100 %, Minimum measured 62.735 %, R squared 0.059): > 6.25 µM
